Results reported in the Deep4Chem optical property database.

Assay: solvent given as SMILES

`Cc1ccc(C2=C3C=C4C(=[N+]3[B-](F)(F)n3c2cc2c3-c3ccccc3C23c2ccccc2-c2ccccc23)c2ccccc2C42c3ccccc3-c3ccccc32)cc1` showed an absorption maximum (in C1CCOC1) of 634 nm.

`CCC1=C(C)C2=Cc3cc(I)cn3[B-](F)(F)[N+]2=C1C` showed an absorption maximum (in C1CCCCC1) of 528 nm, an absorption maximum (in CC(C)=O) of 509.5 nm and an absorption maximum (in CCO) of 514 nm. For the same compound, the absorption maximum (in CCOC(C)=O) was 513 nm, the absorption maximum (in CO) was 511.5 nm and the absorption maximum (in OCC(F)(F)F) was 504 nm.

Compound `Cc1ccc(C2=C3C=CC(/C=C/c4ccccc4)=[N+]3[B-](F)(F)n3c(Cl)ccc32)cc1` has an absorption maximum (in C1CCCCC1) of 569 nm, an absorption maximum (in C1CCOC1) of 568 nm and an absorption maximum (in C1COCCO1) of 569 nm. It also gave an absorption maximum (in CCOC(C)=O) of 565 nm, an absorption maximum (in CO) of 564 nm and an absorption maximum (in Cc1ccccc1) of 572 nm. It also gave an absorption maximum (in ClC(Cl)Cl) of 571 nm.

For `COc1ccc(-c2nc(-c3ccccc3O)c(-c3ccccc3O)n2-c2ccc(C)cc2)cc1`, the absorption maximum (in C1CCOC1) was 305 nm, the absorption maximum (in CS(C)=O) was 308 nm and the absorption maximum (in ClC(Cl)Cl) was 304 nm. For the same compound, the absorption maximum (in ClCCl) was 304 nm.

Work on `[O-]c1ccc2ccccc2c1` yielded an absorption maximum (in O) of 346 nm.

`O=C(c1ccc(N2c3ccccc3Oc3ccccc32)cc1)c1ccc2sc3ccccc3c2c1` showed an absorption maximum (in C1CCOC1) of 312 nm.

Work on `CC(C)(C)c1ccc(Oc2cc3c4c(cc(Oc5ccc(C(C)(C)C)cc5)c5c6c(Oc7ccc(C(C)(C)C)cc7)cc7c8c(cc(Oc9ccc(C(C)(C)C)cc9)c(c2c45)c86)C(=O)N(c2ccccc2)C7=O)C(=O)N(c2ccccc2)C3=O)cc1` yielded an absorption maximum (in ClC(Cl)Cl) of 586 nm.

Compound `c1ccc2c(c1)CC1(C2)c2cc(N3c4ccccc4Sc4ccccc43)ccc2-c2ccc(N3c4ccccc4Sc4ccccc43)cc21` has an absorption maximum (in Cc1ccccc1) of 310 nm.

With `CCOC(=O)COc1ccc(/C=C/C2=C3c4ccccc4C(c4ccc[nH]4)=[N+]3[B-](F)(F)n3ccc(C)c32)cc1` the absorption maximum (in C1CCOC1) was 586 nm, the absorption maximum (in CC#N) was 577 nm and the absorption maximum (in CCCCCC) was 587 nm. It also gave an absorption maximum (in CO) of 580 nm, an absorption maximum (in Cc1ccccc1) of 592 nm and an absorption maximum (in ClCCl) of 585 nm.

`COC(=O)c1ccc(-c2nc3ccc(N(C)C)cc3s2)cc1` gave an absorption maximum (in C1CCCCC1) of 387 nm, an absorption maximum (in CC#N) of 392 nm and an absorption maximum (in CC(C)O) of 393 nm. It also gave an absorption maximum (in CO) of 396 nm, an absorption maximum (in CS(C)=O) of 405 nm and an absorption maximum (in ClC(Cl)Cl) of 395 nm. It also gave an absorption maximum (in c1ccccc1) of 394 nm.

For `CN(C)c1ccc2nc(-c3ccc(C(=O)OC[C@H](NC(=O)OC(C)(C)C)C(=O)OCc4ccccc4)cc3)sc2c1`, the absorption maximum (in C1CCCCC1) was 390 nm, the absorption maximum (in CC#N) was 398 nm and the absorption maximum (in CC(C)O) was 397 nm. For the same compound, the absorption maximum (in CO) was 397 nm, the absorption maximum (in CS(C)=O) was 408 nm and the absorption maximum (in ClC(Cl)Cl) was 401 nm. The absorption maximum (in c1ccccc1) was 397 nm.

In the case of `O=C1[C@@H]2[C@H](C(=O)N1c1ccc3cc4ccccc4cc3c1)[C@@H]1C=C[C@H]2C1`, the absorption maximum (in ClC(Cl)Cl) is reported as 380 nm.

`CCCCn1c(-c2ccc(-c3ccc(-c4ccc(-c5n(CCCC)c6ccccc6[n+]5CCCC)cc4)cc3)cc2)[n+](CCCC)c2ccccc21` showed an absorption maximum (in O) of 303 nm.

Work on `CCCCCCN(CCCCCC)c1ccc(C#Cc2ccc(/C=C/c3ccc(-c4ccc(/C=C/c5ccc(C#Cc6ccc(N(CCCCCC)CCCCCC)cc6)cc5)cc4)cc3)cc2)cc1` yielded an absorption maximum (in Cc1ccccc1) of 400 nm.

`F[B-]1(F)OC(c2ccc(C(F)(F)F)cc2)=Cc2c3ccccc3c3ccccc3[n+]21` showed an absorption maximum (in ClC(Cl)Cl) of 430 nm.

Work on `Nc1ccc2c(c1)Cc1ccccc1-2` yielded an absorption maximum (in C1CCCCC1) of 318 nm, an absorption maximum (in C1COCCO1) of 322 nm and an absorption maximum (in CC#N) of 325 nm. It also gave an absorption maximum (in CC(C)O) of 317 nm, an absorption maximum (in CCCCCC) of 318 nm and an absorption maximum (in CCCCCCC) of 317 nm. The absorption maximum (in CCO) was 317 nm, the absorption maximum (in CCOC(C)=O) was 325 nm and the absorption maximum (in CCOCC) was 318 nm. The absorption maximum (in CO) was 317 nm, the absorption maximum (in ClCCl) was 319 nm and the absorption maximum (in O) was 315 nm.

In the case of `CC(C)(C)c1ccc(-c2cc3c(-c4ccc(C(C)(C)C)cc4)c4cccc5c(-c6ccc(C(C)(C)C)cc6)cc6c(-c7ccc(C(C)(C)C)cc7)c7cccc2c7c3c6c54)cc1`, the absorption maximum (in ClCCl) is reported as 456 nm.

In the case of `CC(C)[Si](C#Cc1c2cc3ccccc3cc2c(C#C[Si](C)(C)C)c2cc3ccccc3cc12)(C(C)C)C(C)C`, the absorption maximum (in ClCCl) is reported as 642 nm.

For `N#CC(C#N)=Cc1ccc(-c2ccc(N(c3ccccc3)c3ccccc3)cc2)o1`, the absorption maximum (in ClC(Cl)Cl) was 509 nm.

With `Cn1c2ccc(S(=O)(=O)Cl)cc2c(=O)c2cc(S(=O)(=O)Cl)ccc21` the absorption maximum (in CS(C)=O) was 406 nm.

In the case of `CN(C)c1ccc(-c2cc(-c3ccc(N(C)C)cc3)ncn2)cc1`, the absorption maximum (in ClCCl) is reported as 378 nm.

Work on `COc1ccc(-c2c3nc(cc4ccc([nH]4)c(-c4ccc(OC)c(OCC(=O)O)c4)c4nc(cc5ccc2[nH]5)C=C4)C=C3)cc1OCC(=O)O` yielded an absorption maximum (in CS(C)=O) of 633 nm.
